Assay results from patent publication US6348190B1, “Pharmaceutical compositions with antimicrobial activity” (Richter Gedeon Vegyeszeti Gyar Rt., priority 1996, dated 2002).

Key:
the bacteria tested = test: Seventh series: sterility examination after termination of the 72 hours trial; type: cell-based; conditions: sterility examination after the 72 hours trial
From the text: It can be observed that a nearly immediate effect occurs after inoculation.

Salmonella sp = test: Second series: number of germs against prolonged time in 0.1% solutions; type: cell-based; conditions: 0.1% solution; for number of test organisms: Salmonella sp
Description: (§1) Zinc and sodium hyaluronate solutions of […] (obtained by diluting solutions of 0.5% prepared according to Examples 1 and 2) were artificially infected by the identical germ count of various test organisms and the changing of the number of germs was taken against time. The number of germs was determined in a point of time by plating method. The evaluation was visually carried out at moulds and by using an automated colony counter at bacteria and fungi.
(§2) The effects of 0.1% zinc hyaluronate and sodium hyaluronate solutions, respectively on three distinguished test organisms are illustrated in Table 3.

Staphylococcus aureus = test: as above; type: cell-based; conditions: 0.1% solution; for number of test organisms: Staphylococcus aureus
Description: as §1, §2

Pseudomonas aeruginosa [1] = test: as above; type: cell-based; conditions: 0.1% solution
Description: as §1, §2

Pseudomonas aeruginosa [2] = test: Third series: effect of solutions of various concentrations on Pseudomonas aeruginosa; type: cell-based
Description: as §1
Due to the ophthalmological importance of Pseudomonas aeruginosa, the effects of zinc hyaluronate solutions of various concentrations on Pseudomonas aeruginosa were studied in comparison to sodium hyaluronate solutions of the same concentrations.

Staphylococcus areus = test: Fifth series: MIC and CID by serial dilution; type: cell-based, Staphylococcus aureus; conditions: serial dilution from 0.2% solution
Description: (§3) The antibacterial effect of zinc hyaluronate associate can be characterized by the following values of the minimum inhibitory concentration (MIC) and microbicidal concentration (CID) in comparison to the corresponding values of sodium hyaluronate.
(§4) MIC and CID values were determined by using solutions of 0.2% concentration. The determinations were conducted in a known way: a serial dilution was prepared from the substances to be tested and these solutions were artificially infected by the corresponding dilutions of the selected test organisms. After incubation at a suitable temperature for an appropriate time, the concentration series was visually evaluated and the minimum concentration was determined, which inhibited the growth of microorganisms (MIC value), or induced the death of the microorganisms (CID value).

Escherichia coli = test: Fifth series: MIC and CID by serial dilution; type: cell-based; conditions: serial dilution from 0.2% solution
Description: as §3, §4

Salmonella = test: Fifth series: MIC and CID by serial dilution; type: cell-based; conditions: serial dilution from 0.2% solution
Description: as §3, §4

Streptococcus sp = test: Fifth series: MIC and CID by serial dilution; type: cell-based; conditions: serial dilution from 0.2% solution
Description: as §3, §4

[3] = tested on: Helicobacter pylori strain 822/96; test: Eighth series: MIC on Helicobacter pylori, agar with 10% bovine blood; type: cell-based
Description: These investigations were carried out by using 1.0 weight/vol. % zinc hyaluronate solution on Helicobacter pylori strains cultivated from the gastric is biopsy samples of patients suffering from various ulcers. An 1% solution of De-Nol (colloidal bismuth subcitrate) was used as reference substance. Agar culture medium (nutrient medium) supplemented with 10% of bovine blood was used for the investigations. Plates without compound to be tested were used as controls. The inoculated plates were incubated for 3 to 5 days at 37° C. in a gaseous environment containing 5% of oxygen and 7 to 8% of carbon dioxide. The value of minimum inhibitory concentration (MIC) was considered to be the minimum concentration of substances totally inhibiting the propagation of bacteria well-growing on the control plates.

Substance: cobalt(II) hyaluronate [cobalt hyaluronate]
- character of the effect (static or bactericidal) (the bacteria tested): bactericidal effect

Substance: sodium hyaluronate [reference compound]
- number of test organisms (Salmonella sp; 0 hr): 8.0 × 10^6 Test-organism/ml
- number of test organisms (Salmonella sp; 24 hrs): 8.1 × 10^6 Test-organism/ml
- number of test organisms (Salmonella sp; 48 hrs): 1.2 × 10^6 Test-organism/ml
- number of test organisms (Salmonella sp; 72 hrs): 1.8 × 10^6 Test-organism/ml
- course of the count over the test time (in words) (Salmonella sp; Salmonella): remained practically within the same order
- number of test organisms (Staphylococcus aureus; 0 hr): 1.3 × 10^6 Test-organism/ml
- number of test organisms (Staphylococcus aureus; 24 hrs): 4.1 × 10^6 Test-organism/ml
- number of test organisms (Staphylococcus aureus; 48 hrs): 6.2 × 10^6 Test-organism/ml
- number of test organisms (Staphylococcus aureus; 72 hrs): 8.4 × 10^6 Test-organism/ml
- course of the count over the test time (in words) (Staphylococcus aureus; Staphylococcus): remained practically within the same order

Substance: zinc hyaluronate
- onset of effect (in words) (Pseudomonas aeruginosa [1]): significant decrease appeared only from the second day
- number of test organisms (Pseudomonas aeruginosa [1]; 0 hr): 2.1 × 10^5 Test-organism/ml
- number of test organisms (Pseudomonas aeruginosa [1]; 24 hrs): 2.4 × 10^4 Test-organism/ml
- number of test organisms (Pseudomonas aeruginosa [1]; 48 hrs): 3.0 × 10^3 Test-organism/ml
- number of test organisms (Pseudomonas aeruginosa [1]; 72 hrs): <100 Test-organism/ml
- number of test organisms (Pseudomonas aeruginosa [1]; 96 hrs): <100 Test-organism/ml
- number of test organisms (Pseudomonas aeruginosa [1]; 168 hrs): 0 Test-organism/ml
- number of test organisms (Salmonella sp; 0 hr): 2.0 × 10^6 Test-organism/ml
- number of test organisms (Salmonella sp; 24 hrs): 1.1 × 10^6 Test-organism/ml
- number of test organisms (Salmonella sp; 48 hrs): 0 Test-organism/ml
- number of test organisms (Salmonella sp; 72 hrs): 0 Test-organism/ml
- number of test organisms (Salmonella sp; 96 hrs): 0 Test-organism/ml
- number of test organisms (Salmonella sp; 168 hrs): 0 Test-organism/ml
- time until count reduced to zero (Salmonella sp; Salmonella): ≤ 48 h
- number of test organisms (Staphylococcus aureus; 0 hr): 4.2 × 10^6 Test-organism/ml
- number of test organisms (Staphylococcus aureus; 24 hrs): 4.6 × 10^6 Test-organism/ml
- number of test organisms (Staphylococcus aureus; 48 hrs): 0 Test-organism/ml
- number of test organisms (Staphylococcus aureus; 72 hrs): 0 Test-organism/ml
- number of test organisms (Staphylococcus aureus; 96 hrs): 0 Test-organism/ml
- number of test organisms (Staphylococcus aureus; 168 hrs): 0 Test-organism/ml
- time until count reduced to zero (Staphylococcus aureus; Staphylococcus): ≤ 48 h
- number of test organisms (Pseudomonas aeruginosa [2]; 0.1% solution, 0 hr): 5.5 × 10^5 Test-organism /ml
- number of test organisms (Pseudomonas aeruginosa [2]; 0.1% solution, 24 hrs): 5.0 × 10^5 Test-organism /ml
- number of test organisms (Pseudomonas aeruginosa [2]; 0.1% solution, 48 hrs): 2.0 × 10^3 Test-organism /ml
- number of test organisms (Pseudomonas aeruginosa [2]; 0.1% solution, 72 hrs): <100 Test-organism /ml
- number of test organisms (Pseudomonas aeruginosa [2]; 0.2% solution, 0 hr): 8.0 × 10^5 Test-organism /ml
- number of test organisms (Pseudomonas aeruginosa [2]; 0.2% solution, 24 hrs): 5.5 × 10^5 Test-organism /ml
- number of test organisms (Pseudomonas aeruginosa [2]; 0.2% solution, 48 hrs): 3.0 × 10^3 Test-organism /ml
- number of test organisms (Pseudomonas aeruginosa [2]; 0.2% solution, 72 hrs): <100 Test-organism /ml
- number of test organisms (Pseudomonas aeruginosa [2]; 0.5% solution, 0 hr): 1.0 × 10^6 Test-organism /ml
- number of test organisms (Pseudomonas aeruginosa [2]; 0.5% solution, 24 hrs): 6.0 × 10^5 Test-organism /ml
- number of test organisms (Pseudomonas aeruginosa [2]; 0.5% solution, 48 hrs): 3.0 × 10^3 Test-organism /ml
- number of test organisms (Pseudomonas aeruginosa [2]; 0.5% solution, 72 hrs): <100 Test-organism /ml
- activity compared (in words) (Pseudomonas aeruginosa [2]; Tables 4 and 5): obviously more effective than sodium hyaluronate solutions
- CID (microbicidal concentration) (Staphylococcus areus): 120 µg/mL
- MIC (minimum inhibitory concentration) (Staphylococcus areus): 40 µg/mL
- CID (microbicidal concentration) (Escherichia coli): 310 µg/mL
- MIC (minimum inhibitory concentration) (Escherichia coli): 26 µg/mL
- CID (microbicidal concentration) (Salmonella): 160 µg/mL
- MIC (minimum inhibitory concentration) (Salmonella): 5.4 µg/mL
- CID (microbicidal concentration) (Streptococcus sp): 400 µg/mL
- MIC (minimum inhibitory concentration) (Streptococcus sp): 96 µg/mL
- in vitro activity compared (in words) ([3]; Helicobacter pylori): comparable to the activity of De-Nol
- MIC ([3]; Helicobacter pylori strain 822/96, 3 to 5 days at 37° C., 5% oxygen, 7 to 8% carbon dioxide): 500 µg/mL
